Measurements from ChEMBL document CHEMBL5214933, “Discovery of Selenium-Containing STING Agonists as Orally Available Antitumor Agents” (J Med Chem, 2022).
Converted amounts (≈) assume the structure as drawn. The source made the active and inactive calls. No cut-off for these calls is given here.

How the values were obtained:
[1] = Aqueous solubility of compound at 3 mg incubated for 24 hrs under shaking condition by RP-HPLC analysis; format: physicochemical; settings: water
[2] = Toxicity in naive BALB/c mouse implanted with mouse 4T1-Luc cells assessed as reduction in body weight at 20 mg/kg, po measured after 15 days; format: organism-based; settings: in vivo, 360 h, time 15 day
Mus musculus = test: Immunostimulatory activity in naive […] mouse implanted with mouse MC38 cells assessed as increase in CD69-positive CD8 T cells in spleen at 30 mg/kg, po by FACS analysis (reference value: 8.9 %); format: functional, MC-38
[3] = biological target: Stimulator of interferon genes protein (Homo sapiens, UniProt Q86WV6); test: Agonist activity at STING in human THP-1 cells assessed as increase in IFNbeta mRNA expression at 10 uM measured after 3 hrs by qRT-PCR analysis; format: cell-based; settings: filed as agonist
Sequence of Stimulator of interferon genes protein (Q86WV6 whole entry): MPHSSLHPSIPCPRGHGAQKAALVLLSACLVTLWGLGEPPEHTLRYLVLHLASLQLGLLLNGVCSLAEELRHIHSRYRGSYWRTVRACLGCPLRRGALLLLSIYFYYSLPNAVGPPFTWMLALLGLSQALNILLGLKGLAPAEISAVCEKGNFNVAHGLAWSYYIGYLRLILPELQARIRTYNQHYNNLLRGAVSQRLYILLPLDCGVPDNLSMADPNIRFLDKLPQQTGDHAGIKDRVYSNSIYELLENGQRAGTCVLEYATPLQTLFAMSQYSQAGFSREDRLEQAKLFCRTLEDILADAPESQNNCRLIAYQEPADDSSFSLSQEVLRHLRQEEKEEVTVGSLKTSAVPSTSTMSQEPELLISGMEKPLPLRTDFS

In the case of `CC[C@H](CC(=O)c1cc2cc(OC)c(OC)cc2[se]1)C(=O)O`, the solubility thermodynamic at 24 h [1] is reported as 30 µg/mL (≈ 81.2 µM), the Activity [2] is reported as “Non-Toxic” and the Activity (Mus musculus) is reported as 94.2%. For the same molecule, the Activity [3] was “Active”.
